{"source": "PubChem BioAssay (NCI)", "note": "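Grown in 96-well plates, cells were treated for 48 hours with each compound at five concentrations. Insufficient inhibition: endpoint recorded as highest concentration tested. Here, GI50 denotes the concentration required for 50% inhibition of growth. TGI is the concentration that stops growth completely.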"}
{"tested_on": "SK-MEL-2 melanoma", "test": "DTP human tumour cell line panel, 48 h", "units": {"GI50": "µM", "TGI": "µM"}}
{"molecule": "COC(=O)c1cc2oc(/C=C3/SC(=S)N(NC(C)=O)C3=O)cc2n1C", "GI50": 23.9, "TGI": "> 100"}
{"molecule": "CC1(C)[C@@H](NOCCCN)CC[C@]2(C)[C@H]3C(=O)C=C4[C@@H]5C[C@](C)(C(=O)O)CC[C@]5(C)CC[C@@]4(C)[C@]3(C)CC[C@@H]12", "GI50": 5.3, "TGI": 26.6}
{"molecule": "Oc1ccc(NCn2c(=S)sc3ccccc32)cc1", "TGI": "> 100"}
{"molecule": "O=C1NC(=NCc2ccccc2)S/C1=C\\c1ccc2ncccc2c1", "GI50": "> 25", "TGI": "> 25"}
{"tested_on": "SK-MEL-28 melanoma", "test": "DTP human tumour cell line panel, 48 h", "units": {"GI50": "µM", "TGI": "µM"}}
{"molecule": "COC(=O)c1cc2oc(/C=C3/SC(=S)N(NC(C)=O)C3=O)cc2n1C", "GI50": 40.3, "TGI": "> 100"}
{"molecule": "CC1(C)[C@@H](NOCCCN)CC[C@]2(C)[C@H]3C(=O)C=C4[C@@H]5C[C@](C)(C(=O)O)CC[C@]5(C)CC[C@@]4(C)[C@]3(C)CC[C@@H]12", "GI50": 4.08, "TGI": 13.6}
{"molecule": "Oc1ccc(NCn2c(=S)sc3ccccc32)cc1", "TGI": "> 100"}
{"molecule": "O=C1NC(=NCc2ccccc2)S/C1=C\\c1ccc2ncccc2c1", "GI50": "> 25", "TGI": "> 25"}
{"tested_on": "SK-MEL-5 melanoma", "test": "DTP human tumour cell line panel, 48 h", "units": {"GI50": "µM", "TGI": "µM"}}
{"molecule": "COC(=O)c1cc2oc(/C=C3/SC(=S)N(NC(C)=O)C3=O)cc2n1C", "GI50": 12.6, "TGI": 26.2}
{"molecule": "CC1(C)[C@@H](NOCCCN)CC[C@]2(C)[C@H]3C(=O)C=C4[C@@H]5C[C@](C)(C(=O)O)CC[C@]5(C)CC[C@@]4(C)[C@]3(C)CC[C@@H]12", "GI50": 3.17, "TGI": 10.9}
{"molecule": "Oc1ccc(NCn2c(=S)sc3ccccc32)cc1", "TGI": "> 100"}
{"molecule": "O=C1NC(=NCc2ccccc2)S/C1=C\\c1ccc2ncccc2c1", "GI50": "> 25", "TGI": "> 25"}
{"tested_on": "SK-OV-3 ovarian", "test": "DTP human tumour cell line panel, 48 h", "units": {"GI50": "µM", "TGI": "µM"}}
{"molecule": "CC1(C)[C@@H](NOCCCN)CC[C@]2(C)[C@H]3C(=O)C=C4[C@@H]5C[C@](C)(C(=O)O)CC[C@]5(C)CC[C@@]4(C)[C@]3(C)CC[C@@H]12", "GI50": 17.8, "TGI": 67}
{"molecule": "Oc1ccc(NCn2c(=S)sc3ccccc32)cc1", "TGI": "> 100"}
{"molecule": "O=C1NC(=NCc2ccccc2)S/C1=C\\c1ccc2ncccc2c1", "GI50": "> 25", "TGI": "> 25"}
{"tested_on": "SN12C renal", "test": "DTP human tumour cell line panel, 48 h", "units": {"GI50": "µM", "TGI": "µM"}}
{"molecule": "COC(=O)c1cc2oc(/C=C3/SC(=S)N(NC(C)=O)C3=O)cc2n1C", "GI50": 21.9, "TGI": 60.5}
{"molecule": "CC1(C)[C@@H](NOCCCN)CC[C@]2(C)[C@H]3C(=O)C=C4[C@@H]5C[C@](C)(C(=O)O)CC[C@]5(C)CC[C@@]4(C)[C@]3(C)CC[C@@H]12", "GI50": 4.6, "TGI": 19.5}
{"molecule": "Oc1ccc(NCn2c(=S)sc3ccccc32)cc1", "TGI": "> 100"}
{"molecule": "O=C1NC(=NCc2ccccc2)S/C1=C\\c1ccc2ncccc2c1", "GI50": "> 25", "TGI": "> 25"}
{"tested_on": "SNB-19 CNS", "test": "DTP human tumour cell line panel, 48 h", "units": {"GI50": "µM", "TGI": "µM"}}
{"molecule": "COC(=O)c1cc2oc(/C=C3/SC(=S)N(NC(C)=O)C3=O)cc2n1C", "GI50": 31.6, "TGI": "> 100"}
{"molecule": "CC1(C)[C@@H](NOCCCN)CC[C@]2(C)[C@H]3C(=O)C=C4[C@@H]5C[C@](C)(C(=O)O)CC[C@]5(C)CC[C@@]4(C)[C@]3(C)CC[C@@H]12", "GI50": 13.5, "TGI": 43.7}
{"molecule": "Oc1ccc(NCn2c(=S)sc3ccccc32)cc1", "TGI": "> 100"}
{"molecule": "O=C1NC(=NCc2ccccc2)S/C1=C\\c1ccc2ncccc2c1", "GI50": "> 25", "TGI": "> 25"}
{"tested_on": "SNB-75 CNS", "test": "DTP human tumour cell line panel, 48 h", "units": {"GI50": "µM", "TGI": "µM"}}
{"molecule": "COC(=O)c1cc2oc(/C=C3/SC(=S)N(NC(C)=O)C3=O)cc2n1C", "GI50": 34.7, "TGI": "> 100"}
{"molecule": "CC1(C)[C@@H](NOCCCN)CC[C@]2(C)[C@H]3C(=O)C=C4[C@@H]5C[C@](C)(C(=O)O)CC[C@]5(C)CC[C@@]4(C)[C@]3(C)CC[C@@H]12", "GI50": 12, "TGI": 42.4}
{"molecule": "Oc1ccc(NCn2c(=S)sc3ccccc32)cc1", "TGI": "> 100"}
{"molecule": "O=C1NC(=NCc2ccccc2)S/C1=C\\c1ccc2ncccc2c1", "GI50": "> 25", "TGI": "> 25"}
{"tested_on": "SR leukemia", "test": "DTP human tumour cell line panel, 48 h", "units": {"GI50": "µM", "TGI": "µM"}}
{"molecule": "COC(=O)c1cc2oc(/C=C3/SC(=S)N(NC(C)=O)C3=O)cc2n1C", "GI50": 3.32, "TGI": "> 100"}
{"molecule": "CC1(C)[C@@H](NOCCCN)CC[C@]2(C)[C@H]3C(=O)C=C4[C@@H]5C[C@](C)(C(=O)O)CC[C@]5(C)CC[C@@]4(C)[C@]3(C)CC[C@@H]12", "GI50": 2.27, "TGI": 6.89}
{"molecule": "O=C1NC(=NCc2ccccc2)S/C1=C\\c1ccc2ncccc2c1", "GI50": 1.05, "TGI": "> 25"}
{"tested_on": "SW-620 colon", "test": "DTP human tumour cell line panel, 48 h", "units": {"GI50": "µM", "TGI": "µM"}}
{"molecule": "COC(=O)c1cc2oc(/C=C3/SC(=S)N(NC(C)=O)C3=O)cc2n1C", "GI50": 7.51, "TGI": 25.5}
{"molecule": "CC1(C)[C@@H](NOCCCN)CC[C@]2(C)[C@H]3C(=O)C=C4[C@@H]5C[C@](C)(C(=O)O)CC[C@]5(C)CC[C@@]4(C)[C@]3(C)CC[C@@H]12", "GI50": 3.41, "TGI": 14}
{"molecule": "Oc1ccc(NCn2c(=S)sc3ccccc32)cc1", "TGI": "> 100"}
{"molecule": "O=C1NC(=NCc2ccccc2)S/C1=C\\c1ccc2ncccc2c1", "GI50": "> 25", "TGI": "> 25"}
{"tested_on": "T-47D breast", "test": "DTP human tumour cell line panel, 48 h", "units": {"GI50": "µM", "TGI": "µM"}}
{"molecule": "COC(=O)c1cc2oc(/C=C3/SC(=S)N(NC(C)=O)C3=O)cc2n1C", "GI50": 29.6, "TGI": 90.7}
{"molecule": "CC1(C)[C@@H](NOCCCN)CC[C@]2(C)[C@H]3C(=O)C=C4[C@@H]5C[C@](C)(C(=O)O)CC[C@]5(C)CC[C@@]4(C)[C@]3(C)CC[C@@H]12", "GI50": 3.42, "TGI": 22.4}
{"molecule": "Oc1ccc(NCn2c(=S)sc3ccccc32)cc1", "TGI": "> 100"}
{"molecule": "O=C1NC(=NCc2ccccc2)S/C1=C\\c1ccc2ncccc2c1", "GI50": "> 25", "TGI": "> 25"}
{"tested_on": "TK-10 renal", "test": "DTP human tumour cell line panel, 48 h", "units": {"GI50": "µM", "TGI": "µM"}}
{"molecule": "COC(=O)c1cc2oc(/C=C3/SC(=S)N(NC(C)=O)C3=O)cc2n1C", "GI50": 26, "TGI": 97.4}
{"molecule": "CC1(C)[C@@H](NOCCCN)CC[C@]2(C)[C@H]3C(=O)C=C4[C@@H]5C[C@](C)(C(=O)O)CC[C@]5(C)CC[C@@]4(C)[C@]3(C)CC[C@@H]12", "GI50": 16.7, "TGI": 36}
{"molecule": "Oc1ccc(NCn2c(=S)sc3ccccc32)cc1", "TGI": "> 100"}
{"molecule": "O=C1NC(=NCc2ccccc2)S/C1=C\\c1ccc2ncccc2c1", "GI50": "> 25", "TGI": "> 25"}
{"tested_on": "U251 CNS", "test": "DTP human tumour cell line panel, 48 h", "units": {"GI50": "µM", "TGI": "µM"}}
{"molecule": "COC(=O)c1cc2oc(/C=C3/SC(=S)N(NC(C)=O)C3=O)cc2n1C", "GI50": 16, "TGI": 45}
{"molecule": "CC1(C)[C@@H](NOCCCN)CC[C@]2(C)[C@H]3C(=O)C=C4[C@@H]5C[C@](C)(C(=O)O)CC[C@]5(C)CC[C@@]4(C)[C@]3(C)CC[C@@H]12", "GI50": 4.49, "TGI": 25.4}
{"molecule": "Oc1ccc(NCn2c(=S)sc3ccccc32)cc1", "TGI": "> 100"}
{"molecule": "O=C1NC(=NCc2ccccc2)S/C1=C\\c1ccc2ncccc2c1", "GI50": "> 25", "TGI": "> 25"}
{"tested_on": "UACC-257 melanoma", "test": "DTP human tumour cell line panel, 48 h", "units": {"GI50": "µM", "TGI": "µM"}}
{"molecule": "COC(=O)c1cc2oc(/C=C3/SC(=S)N(NC(C)=O)C3=O)cc2n1C", "GI50": 30.1, "TGI": "> 100"}
{"molecule": "CC1(C)[C@@H](NOCCCN)CC[C@]2(C)[C@H]3C(=O)C=C4[C@@H]5C[C@](C)(C(=O)O)CC[C@]5(C)CC[C@@]4(C)[C@]3(C)CC[C@@H]12", "GI50": 6.81, "TGI": 32.3}
{"molecule": "Oc1ccc(NCn2c(=S)sc3ccccc32)cc1", "TGI": "> 100"}
{"molecule": "O=C1NC(=NCc2ccccc2)S/C1=C\\c1ccc2ncccc2c1", "GI50": "> 25", "TGI": "> 25"}
{"tested_on": "UACC-62 melanoma", "test": "DTP human tumour cell line panel, 48 h", "units": {"GI50": "µM", "TGI": "µM"}}
{"molecule": "COC(=O)c1cc2oc(/C=C3/SC(=S)N(NC(C)=O)C3=O)cc2n1C", "GI50": 14.7, "TGI": 35}
{"molecule": "CC1(C)[C@@H](NOCCCN)CC[C@]2(C)[C@H]3C(=O)C=C4[C@@H]5C[C@](C)(C(=O)O)CC[C@]5(C)CC[C@@]4(C)[C@]3(C)CC[C@@H]12", "GI50": 3.85, "TGI": 14.8}
{"molecule": "Oc1ccc(NCn2c(=S)sc3ccccc32)cc1", "TGI": "> 100"}
{"molecule": "O=C1NC(=NCc2ccccc2)S/C1=C\\c1ccc2ncccc2c1", "GI50": "> 25", "TGI": "> 25"}
{"tested_on": "UO-31 renal", "test": "DTP human tumour cell line panel, 48 h", "units": {"GI50": "µM", "TGI": "µM"}}
{"molecule": "COC(=O)c1cc2oc(/C=C3/SC(=S)N(NC(C)=O)C3=O)cc2n1C", "GI50": 14.5, "TGI": 92.7}
{"molecule": "CC1(C)[C@@H](NOCCCN)CC[C@]2(C)[C@H]3C(=O)C=C4[C@@H]5C[C@](C)(C(=O)O)CC[C@]5(C)CC[C@@]4(C)[C@]3(C)CC[C@@H]12", "GI50": 7.44, "TGI": 20.4}
{"molecule": "Oc1ccc(NCn2c(=S)sc3ccccc32)cc1", "TGI": "> 100"}
{"molecule": "O=C1NC(=NCc2ccccc2)S/C1=C\\c1ccc2ncccc2c1", "GI50": "> 25", "TGI": "> 25"}
